According to ChEMBL document CHEMBL5291721, “A preclinical secondary pharmacology resource illuminates target-adverse drug reaction associations of marketed drugs” (Nat Commun, 2023):

Experiments:
[1] = molecular target: T1, Sodium-dependent serotonin transporter (Homo sapiens, UniProt P31645)
Estrogen receptor = molecular target: T2, Estrogen receptor (Homo sapiens, UniProt P03372)
T2 sequence (P03372 whole entry): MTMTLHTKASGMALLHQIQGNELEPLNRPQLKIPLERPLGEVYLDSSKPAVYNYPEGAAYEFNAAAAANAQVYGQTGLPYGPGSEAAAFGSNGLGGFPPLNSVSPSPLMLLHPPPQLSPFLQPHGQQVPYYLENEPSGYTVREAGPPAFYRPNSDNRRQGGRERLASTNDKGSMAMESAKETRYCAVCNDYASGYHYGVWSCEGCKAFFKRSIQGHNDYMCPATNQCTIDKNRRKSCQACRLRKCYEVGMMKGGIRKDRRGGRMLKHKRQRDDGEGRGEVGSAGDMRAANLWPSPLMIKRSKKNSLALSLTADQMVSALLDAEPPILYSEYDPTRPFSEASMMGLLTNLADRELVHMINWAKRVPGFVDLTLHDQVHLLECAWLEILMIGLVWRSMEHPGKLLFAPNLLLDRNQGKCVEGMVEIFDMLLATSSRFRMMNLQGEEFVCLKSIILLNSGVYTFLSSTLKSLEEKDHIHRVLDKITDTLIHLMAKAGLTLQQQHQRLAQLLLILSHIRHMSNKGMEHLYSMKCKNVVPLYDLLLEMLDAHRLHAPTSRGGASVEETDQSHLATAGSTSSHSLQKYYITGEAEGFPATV

Prothrombin = Prothrombin (Homo sapiens, UniProt P00734); assay type: functional
Adenosine receptor A3 = molecular target: T3, Adenosine receptor A3 (Homo sapiens, UniProt P0DMS8)
T3 sequence (P0DMS8 whole entry): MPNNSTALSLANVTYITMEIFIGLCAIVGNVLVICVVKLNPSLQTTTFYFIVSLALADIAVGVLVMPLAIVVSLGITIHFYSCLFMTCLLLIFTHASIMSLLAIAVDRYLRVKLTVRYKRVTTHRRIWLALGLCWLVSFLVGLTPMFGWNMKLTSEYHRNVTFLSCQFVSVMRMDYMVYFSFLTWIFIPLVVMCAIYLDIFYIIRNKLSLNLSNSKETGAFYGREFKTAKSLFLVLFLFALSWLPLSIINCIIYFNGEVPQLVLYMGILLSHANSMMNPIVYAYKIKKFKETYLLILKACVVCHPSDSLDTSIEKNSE

[2] = molecular target: T4, Gastrin/cholecystokinin type B receptor (Homo sapiens, UniProt P32239)
T4 sequence (P32239 whole entry): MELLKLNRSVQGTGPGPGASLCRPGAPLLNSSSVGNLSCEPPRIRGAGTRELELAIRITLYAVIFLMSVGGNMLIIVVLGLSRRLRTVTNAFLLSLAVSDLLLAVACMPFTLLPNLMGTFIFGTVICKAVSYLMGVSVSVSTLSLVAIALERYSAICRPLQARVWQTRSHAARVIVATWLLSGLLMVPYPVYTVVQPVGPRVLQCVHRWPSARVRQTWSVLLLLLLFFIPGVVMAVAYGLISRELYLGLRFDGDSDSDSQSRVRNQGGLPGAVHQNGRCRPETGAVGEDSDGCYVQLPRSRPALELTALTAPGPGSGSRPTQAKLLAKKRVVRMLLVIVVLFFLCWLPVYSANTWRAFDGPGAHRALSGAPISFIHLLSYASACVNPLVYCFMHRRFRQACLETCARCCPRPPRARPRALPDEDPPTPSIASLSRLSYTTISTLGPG

Mu-type opioid receptor = Mu-type opioid receptor (Homo sapiens, UniProt P35372)
[3] = molecular target: Beta-1 adrenergic receptor (Homo sapiens, UniProt P08588); assay type: functional
[4] = molecular target: T5, Neuropeptide Y receptor type 1 (Homo sapiens, UniProt P25929)
T5 sequence (P25929 whole entry): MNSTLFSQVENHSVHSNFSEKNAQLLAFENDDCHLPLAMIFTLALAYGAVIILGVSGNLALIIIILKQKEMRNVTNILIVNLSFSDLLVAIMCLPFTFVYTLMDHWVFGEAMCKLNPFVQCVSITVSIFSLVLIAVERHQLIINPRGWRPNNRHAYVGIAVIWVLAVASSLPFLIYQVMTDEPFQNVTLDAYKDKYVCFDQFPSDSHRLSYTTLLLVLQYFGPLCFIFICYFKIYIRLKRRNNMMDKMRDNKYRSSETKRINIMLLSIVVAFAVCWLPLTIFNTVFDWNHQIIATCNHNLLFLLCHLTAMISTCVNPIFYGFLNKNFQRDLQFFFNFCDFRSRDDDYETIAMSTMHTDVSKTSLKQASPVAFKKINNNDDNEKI

[5] = molecular target: Voltage-dependent L-type calcium channel subunit alpha-1C (Rattus norvegicus, UniProt P22002); assay type: functional
[6] = molecular target: Kappa-type opioid receptor (Homo sapiens, UniProt P41145)
[7] = molecular target: T6, Muscarinic acetylcholine receptor M2 (Homo sapiens, UniProt P08172); assay type: functional, cell-based
T6 sequence (P08172 whole entry): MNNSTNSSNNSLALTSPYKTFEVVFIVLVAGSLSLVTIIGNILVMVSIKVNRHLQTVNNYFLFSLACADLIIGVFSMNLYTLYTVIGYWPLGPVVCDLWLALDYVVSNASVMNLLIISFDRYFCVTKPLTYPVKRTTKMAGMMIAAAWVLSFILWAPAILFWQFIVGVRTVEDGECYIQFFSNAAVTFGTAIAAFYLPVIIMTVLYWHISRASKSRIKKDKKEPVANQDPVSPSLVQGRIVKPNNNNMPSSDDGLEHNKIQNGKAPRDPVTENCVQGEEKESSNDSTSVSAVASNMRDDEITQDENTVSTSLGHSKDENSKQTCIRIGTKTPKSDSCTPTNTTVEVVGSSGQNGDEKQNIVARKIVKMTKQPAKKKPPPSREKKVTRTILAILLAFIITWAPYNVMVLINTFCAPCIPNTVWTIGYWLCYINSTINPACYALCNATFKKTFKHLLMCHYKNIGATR

[8] = molecular target: T1, Sodium-dependent serotonin transporter; remark: listed apart in the source
[9] = molecular target: 5-hydroxytryptamine receptor 2A (Homo sapiens, UniProt P28223); assay type: functional, cell-based
Also: assay procedure not described here.

Mu-type opioid receptor, sequence (P35372 whole entry): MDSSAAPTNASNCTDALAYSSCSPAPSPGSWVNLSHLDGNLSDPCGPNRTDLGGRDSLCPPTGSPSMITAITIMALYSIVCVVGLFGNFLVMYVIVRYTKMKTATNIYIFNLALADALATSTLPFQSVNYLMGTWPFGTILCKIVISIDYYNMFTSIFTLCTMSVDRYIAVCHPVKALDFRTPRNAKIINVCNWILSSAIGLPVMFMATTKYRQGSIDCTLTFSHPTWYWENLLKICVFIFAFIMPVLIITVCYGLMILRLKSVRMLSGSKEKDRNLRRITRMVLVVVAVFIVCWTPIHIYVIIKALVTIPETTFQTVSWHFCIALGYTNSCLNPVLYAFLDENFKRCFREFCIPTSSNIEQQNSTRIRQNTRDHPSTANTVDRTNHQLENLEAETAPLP
Kappa-type opioid receptor, sequence (P41145 whole entry): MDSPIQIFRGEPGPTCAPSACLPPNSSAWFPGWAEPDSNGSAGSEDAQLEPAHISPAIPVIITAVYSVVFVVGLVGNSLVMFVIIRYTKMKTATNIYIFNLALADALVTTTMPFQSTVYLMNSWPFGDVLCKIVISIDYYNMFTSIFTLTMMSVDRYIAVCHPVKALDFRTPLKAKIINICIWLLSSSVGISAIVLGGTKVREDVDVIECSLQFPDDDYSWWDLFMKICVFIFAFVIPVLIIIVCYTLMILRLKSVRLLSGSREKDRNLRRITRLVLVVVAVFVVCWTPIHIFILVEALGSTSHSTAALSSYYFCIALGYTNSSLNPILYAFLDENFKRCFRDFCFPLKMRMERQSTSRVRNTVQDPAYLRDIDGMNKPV
Voltage-dependent L-type calcium channel subunit alpha-1C, sequence (P22002 whole entry): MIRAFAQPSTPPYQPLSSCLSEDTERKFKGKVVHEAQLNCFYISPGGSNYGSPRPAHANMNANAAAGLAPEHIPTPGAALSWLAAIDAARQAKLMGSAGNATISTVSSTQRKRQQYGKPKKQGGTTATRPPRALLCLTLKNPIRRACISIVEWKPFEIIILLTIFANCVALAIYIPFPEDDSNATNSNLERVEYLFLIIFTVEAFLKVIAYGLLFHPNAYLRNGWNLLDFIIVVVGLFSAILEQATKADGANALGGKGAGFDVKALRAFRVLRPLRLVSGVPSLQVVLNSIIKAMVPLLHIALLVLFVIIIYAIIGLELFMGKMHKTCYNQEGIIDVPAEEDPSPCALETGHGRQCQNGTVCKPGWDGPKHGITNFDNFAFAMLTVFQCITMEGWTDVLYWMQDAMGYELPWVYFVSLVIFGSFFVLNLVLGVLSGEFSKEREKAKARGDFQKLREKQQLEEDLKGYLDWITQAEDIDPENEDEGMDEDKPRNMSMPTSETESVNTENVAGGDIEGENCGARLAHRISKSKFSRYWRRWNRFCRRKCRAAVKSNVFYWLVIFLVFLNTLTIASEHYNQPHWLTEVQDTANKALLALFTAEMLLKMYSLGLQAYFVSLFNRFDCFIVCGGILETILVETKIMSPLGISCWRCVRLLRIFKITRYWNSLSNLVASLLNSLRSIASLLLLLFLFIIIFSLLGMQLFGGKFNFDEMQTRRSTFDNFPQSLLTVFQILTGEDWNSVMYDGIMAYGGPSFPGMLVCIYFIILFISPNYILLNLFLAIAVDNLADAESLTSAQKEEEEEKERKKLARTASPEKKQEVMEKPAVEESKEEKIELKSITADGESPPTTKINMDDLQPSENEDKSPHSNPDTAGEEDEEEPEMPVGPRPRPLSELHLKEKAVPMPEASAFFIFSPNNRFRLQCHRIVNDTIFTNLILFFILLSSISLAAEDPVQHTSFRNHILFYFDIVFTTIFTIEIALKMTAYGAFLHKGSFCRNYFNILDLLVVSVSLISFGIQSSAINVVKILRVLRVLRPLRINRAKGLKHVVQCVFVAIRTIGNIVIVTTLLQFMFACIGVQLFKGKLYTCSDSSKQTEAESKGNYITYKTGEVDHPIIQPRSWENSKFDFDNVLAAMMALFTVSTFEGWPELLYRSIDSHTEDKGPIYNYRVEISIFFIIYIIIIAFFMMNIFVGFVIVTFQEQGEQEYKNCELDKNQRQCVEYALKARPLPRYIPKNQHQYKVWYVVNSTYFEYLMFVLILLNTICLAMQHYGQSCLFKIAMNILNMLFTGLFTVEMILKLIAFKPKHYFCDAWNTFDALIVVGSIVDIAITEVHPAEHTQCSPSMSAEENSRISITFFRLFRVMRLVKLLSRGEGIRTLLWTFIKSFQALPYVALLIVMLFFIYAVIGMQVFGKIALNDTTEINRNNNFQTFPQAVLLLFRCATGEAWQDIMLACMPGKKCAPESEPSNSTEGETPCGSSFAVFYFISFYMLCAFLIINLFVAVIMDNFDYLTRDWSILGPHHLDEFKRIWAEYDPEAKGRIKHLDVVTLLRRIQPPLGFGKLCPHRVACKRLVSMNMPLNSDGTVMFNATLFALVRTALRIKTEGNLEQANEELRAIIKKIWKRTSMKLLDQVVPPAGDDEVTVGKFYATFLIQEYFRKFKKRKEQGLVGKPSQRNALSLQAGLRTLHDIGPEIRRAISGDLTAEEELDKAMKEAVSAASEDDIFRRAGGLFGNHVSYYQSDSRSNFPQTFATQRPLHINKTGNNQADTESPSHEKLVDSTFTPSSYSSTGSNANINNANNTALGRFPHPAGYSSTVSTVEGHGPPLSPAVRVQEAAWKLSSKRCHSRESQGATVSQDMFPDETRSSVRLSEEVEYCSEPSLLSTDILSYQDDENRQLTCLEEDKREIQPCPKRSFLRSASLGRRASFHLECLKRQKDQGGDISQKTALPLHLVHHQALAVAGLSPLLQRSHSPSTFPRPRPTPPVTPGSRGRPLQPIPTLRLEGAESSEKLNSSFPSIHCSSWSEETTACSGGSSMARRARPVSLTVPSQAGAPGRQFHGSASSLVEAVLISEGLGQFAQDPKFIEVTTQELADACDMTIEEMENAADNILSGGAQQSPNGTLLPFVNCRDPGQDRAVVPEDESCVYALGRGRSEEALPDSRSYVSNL
Beta-1 adrenergic receptor, sequence (P08588 whole entry): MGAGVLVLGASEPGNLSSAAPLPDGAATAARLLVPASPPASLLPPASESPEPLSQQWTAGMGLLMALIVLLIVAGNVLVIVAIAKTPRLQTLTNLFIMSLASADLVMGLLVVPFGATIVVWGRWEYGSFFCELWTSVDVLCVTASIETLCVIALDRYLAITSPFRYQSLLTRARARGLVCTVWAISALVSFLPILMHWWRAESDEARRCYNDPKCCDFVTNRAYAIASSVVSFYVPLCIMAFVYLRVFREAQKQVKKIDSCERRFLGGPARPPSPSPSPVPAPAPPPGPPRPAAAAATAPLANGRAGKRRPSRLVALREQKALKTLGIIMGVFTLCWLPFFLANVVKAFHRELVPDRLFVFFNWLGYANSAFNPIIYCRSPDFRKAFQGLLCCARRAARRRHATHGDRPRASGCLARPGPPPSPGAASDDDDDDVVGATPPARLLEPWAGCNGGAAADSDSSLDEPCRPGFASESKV
5-hydroxytryptamine receptor 2A, sequence (P28223 whole entry): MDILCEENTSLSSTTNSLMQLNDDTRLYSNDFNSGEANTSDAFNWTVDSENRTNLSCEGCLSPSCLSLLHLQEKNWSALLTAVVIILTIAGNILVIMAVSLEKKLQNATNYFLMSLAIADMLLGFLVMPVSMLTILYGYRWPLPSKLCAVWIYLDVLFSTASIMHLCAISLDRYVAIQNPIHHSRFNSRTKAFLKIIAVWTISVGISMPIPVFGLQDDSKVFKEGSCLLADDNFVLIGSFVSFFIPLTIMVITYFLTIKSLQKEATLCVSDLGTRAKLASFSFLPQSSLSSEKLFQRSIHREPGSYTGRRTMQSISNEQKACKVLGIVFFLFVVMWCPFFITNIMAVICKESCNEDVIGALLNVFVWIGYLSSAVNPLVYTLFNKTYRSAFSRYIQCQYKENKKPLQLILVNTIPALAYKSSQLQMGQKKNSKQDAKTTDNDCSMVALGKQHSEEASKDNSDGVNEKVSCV
T1 sequence (P31645 whole entry): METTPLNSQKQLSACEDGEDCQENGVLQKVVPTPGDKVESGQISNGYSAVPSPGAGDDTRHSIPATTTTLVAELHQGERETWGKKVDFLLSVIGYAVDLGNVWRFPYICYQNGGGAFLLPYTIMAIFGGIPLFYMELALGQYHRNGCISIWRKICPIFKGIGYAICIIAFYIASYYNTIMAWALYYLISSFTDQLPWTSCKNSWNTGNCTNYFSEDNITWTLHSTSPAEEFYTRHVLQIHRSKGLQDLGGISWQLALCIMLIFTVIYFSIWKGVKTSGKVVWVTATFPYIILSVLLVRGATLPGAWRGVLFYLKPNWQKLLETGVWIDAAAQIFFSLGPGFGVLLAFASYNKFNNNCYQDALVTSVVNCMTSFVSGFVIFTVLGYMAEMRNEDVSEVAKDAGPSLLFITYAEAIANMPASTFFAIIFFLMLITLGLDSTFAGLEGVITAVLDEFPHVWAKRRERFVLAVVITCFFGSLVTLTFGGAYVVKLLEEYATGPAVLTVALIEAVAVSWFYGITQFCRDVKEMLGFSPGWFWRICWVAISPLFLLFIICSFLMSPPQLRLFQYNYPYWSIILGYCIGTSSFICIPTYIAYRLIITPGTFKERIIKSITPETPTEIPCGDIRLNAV

| Compound | AC50 [1] | AC50 (Estrogen receptor) | AC50 (Prothrombin) | AC50 (Adenosine receptor A3) | AC50 [2] | AC50 (Mu-type opioid receptor) | AC50 [3] | AC50 [4] | AC50 [5] | AC50 [6] | AC50 [7] | AC50 [8] | AC50 [9] |
| --- | --- | --- | --- | --- | --- | --- | --- | --- | --- | --- | --- | --- | --- |
| CCCCCCCCCCCCCCCC(=O)OC[C@H](COP(=O)([O-])OCC[N+](C)(C)C)OC(=O)CCCCCCCCCCCCCCC [COLFOSCERIL PALMITATE] | > 30 µM | > 30 µM | > 30 µM | – | – | – | – | – | – | – | – | – | – |
| COc1cccc2c1C(=O)c1c(O)c3c(c(O)c1C2=O)C[C@@](O)(C(=O)CO)C[C@@H]3O[C@H]1C[C@H](N)[C@H](O[C@@H]2CCCCO2)[C@H](C)O1 [PIRARUBICIN] | > 30 µM | > 30 µM | > 30 µM | – | – | – | – | – | – | – | – | – | – |
| CN(C)CCC=C1c2ccccc2CCc2ccccc21 [AMITRIPTYLINE] | – | > 30 µM | > 30 µM | > 30 µM | > 30 µM | > 30 µM | 22.7 µM | > 30 µM | > 10 µM | – | – | – | – |
| O=C(c1ccccc1)c1ccc2n1CCC2C(=O)O (stereo not drawn) [KETOROLAC] | – | – | – | – | – | > 30 µM | > 10 µM | > 10 µM | > 30 µM | > 30 µM | > 30 µM | – | – |
| CCOc1ccccc1OCCN[C@H](C)Cc1ccc(OC)c(S(N)(=O)=O)c1 [TAMSULOSIN] | – | – | – | – | > 30 µM | 5.3 µM | 2.5 µM | > 30 µM | > 10 µM | > 30 µM | > 10 µM | > 30 µM | > 30 µM |
| CCN(CCO)CCCC(C)Nc1ccnc2cc(Cl)ccc12 (stereo not drawn) [HYDROXYCHLOROQUINE] | – | – | – | – | – | > 30 µM | – | > 10 µM | > 10 µM | > 10 µM | > 10 µM | – | – |
| CC(C)C[C@H](NC(=O)[C@H](Cc1ccccc1)NC(=O)c1cnccn1)B(O)O [BORTEZOMIB] | – | – | – | – | > 30 µM | – | > 30 µM | > 30 µM | > 30 µM | > 30 µM | > 30 µM | > 30 µM | > 30 µM |
| O=C(O)[C@H](O)[C@@H](O)[C@H](O)[C@H](O)CO [GLUCONIC ACID] | > 30 µM | – | > 30 µM | > 30 µM | – | – | – | – | – | – | – | – | – |
| CC(C)(Oc1ccc(Cl)cc1)C(=O)NC(=O)NCN1CCOCC1 [PLAFIBRIDE] | > 30 µM | > 30 µM | > 30 µM | > 30 µM | – | – | – | – | – | – | – | – | – |
| N=C(N)NCC1COc2ccccc2O1 (stereo not drawn) [GUANOXAN] | > 30 µM | > 30 µM | > 30 µM | > 30 µM | – | – | – | – | – | – | – | – | – |
| CC[N+](CC)(CCNC(=O)C(=O)NCC[N+](CC)(CC)Cc1ccccc1Cl)Cc1ccccc1Cl [AMBENONIUM] | – | – | – | – | > 30 µM | – | > 30 µM | > 30 µM | > 30 µM | 0.7 µM | 2.2 µM | 6.1 µM | > 30 µM |
| CO[C@@]1(NC(=O)C(C(=O)O)c2ccc(O)cc2)C(=O)N2C(C(=O)O)=C(CSc3nnnn3C)CO[C@@H]21 (stereo partly drawn) [MOXALACTAM] | > 30 µM | > 30 µM | > 30 µM | – | – | – | – | – | – | – | – | – | – |
| CCCCCCCC/C=C\CCCCCCCC(=O)O [OLEIC ACID] | > 30 µM | > 30 µM | > 30 µM | – | – | – | – | – | – | – | – | – | – |
| O=c1[nH]cc(F)c(=O)[nH]1 [FLUOROURACIL] | – | – | > 30 µM | – | > 30 µM | – | > 30 µM | > 30 µM | – | – | – | – | – |
| O=NN(CCCl)C(=O)NC1CCCCC1 [LOMUSTINE] | – | – | > 30 µM | > 30 µM | – | – | – | – | – | – | – | – | – |
| CCC1(c2ccccc2)C(=O)NCNC1=O [PRIMIDONE] | – | – | – | – | – | > 30 µM | > 10 µM | > 10 µM | > 10 µM | > 10 µM | > 10 µM | – | – |
| O=C(O)COC(=O)Cc1ccccc1Nc1c(Cl)cccc1Cl [ACECLOFENAC] | – | – | – | – | > 30 µM | > 30 µM | > 10 µM | > 30 µM | > 10 µM | > 10 µM | > 10 µM | – | – |
| CC#CC(=O)N1CCC[C@H]1c1nc(-c2ccc(C(=O)Nc3ccccn3)cc2)c2c(N)nccn12 [ACALABRUTINIB] | > 30 µM | > 30 µM | > 30 µM | – | – | – | – | – | – | – | – | – | – |
| CC1=C(C/C=C(\C)CCC[C@H](C)CCC[C@H](C)CCCC(C)C)C(=O)c2ccccc2C1=O [PHYTONADIONE] | > 30 µM | – | > 30 µM | > 30 µM | – | – | – | – | – | – | – | – | – |
| CC(=O)SCC(Cc1ccccc1)C(=O)NCC(=O)OCc1ccccc1 (stereo not drawn) [RACECADOTRIL] | – | – | – | – | > 30 µM | > 30 µM | > 30 µM | > 30 µM | 28 µM | 8.6 µM | > 30 µM | > 30 µM | > 30 µM |
| CNC1(c2ccccc2Cl)CCCCC1=O (stereo not drawn) [KETAMINE] | – | > 30 µM | > 30 µM | > 30 µM | – | – | – | – | – | – | – | – | – |
| CNC1(C)C2CCC(C2)C1(C)C (stereo not drawn) [MECAMYLAMINE] | – | – | – | – | – | > 30 µM | > 10 µM | > 10 µM | > 10 µM | > 10 µM | > 10 µM | > 10 µM | > 10 µM |
| Cc1cccc(C)c1NC(=O)c1cc(S(N)(=O)=O)c(Cl)cc1O [XIPAMIDE] | > 30 µM | – | > 30 µM | > 30 µM | – | – | – | – | – | – | – | – | – |
| C[C@H](Cn1cnc2c(N)ncnc21)OCP(=O)(O)O [TENOFOVIR ANHYDROUS] | – | – | – | – | > 30 µM | – | > 30 µM | > 30 µM | > 30 µM | > 30 µM | > 30 µM | > 30 µM | > 30 µM |
| COC(=O)CCc1ccc(OCC(O)CNC(C)C)cc1 (stereo not drawn) [ESMOLOL] | – | – | – | – | > 30 µM | – | 0.856 µM | > 30 µM | > 30 µM | > 30 µM | > 30 µM | – | – |
| NCCCCCC(=O)O [AMINOCAPROIC ACID] | – | – | – | – | – | > 30 µM | > 10 µM | > 10 µM | > 10 µM | > 10 µM | > 10 µM | – | – |
| CC(C)NCC(O)COc1ccc(CC(N)=O)cc1 (stereo not drawn) [ATENOLOL] | – | – | – | – | > 30 µM | – | – | > 30 µM | – | > 30 µM | – | – | – |
| O=C(O)[C@@H](S)[C@@H](S)C(=O)O | > 30 µM | – | 2.64 µM | – | – | – | – | – | – | – | – | – | – |
| O=P1(N(CCCl)CCCl)NCCCO1 (stereo not drawn) [CYCLOPHOSPHAMIDE ANHYDROUS] | – | > 30 µM | > 30 µM | > 30 µM | – | – | – | – | – | – | – | – | – |
